Paper PMC6407204, “Oral administration of the cannabigerol derivative VCE-003.2 promotes subventricular zone neurogenesis and protects against mutant huntingtin-induced neurodegeneration” (Translational Neurodegeneration, 2019)
“Also recorded” adds a separate entry of the source.

Tests used:
[1] = tested on: CTIP2 transcriptional activity; test: CTIP2 luciferase transcriptional reporter assay (A4-MARS) in P19 cells; assay type: cell-based, mouse; details: 24 h after transfection, neuronal differentiation conditions, vs vehicle
Method: All reagents, unless indicated, were from Sigma-Aldrich (St. Louis, MO, USA). The synthesis and structure of VCE-003.2 were previously described. Mouse embryonic teratocarcinoma P19 were cultured in high-glucose DMEM (Invitrogen) supplemented with 10% fetal bovine serum and 1% penicillin/streptomycin. P19 cells were plated in 24-well plates and transfected with Lipofectamine 2000 reagent according to the manufacture’s protocol (Invitrogen). Twenty-four hours post transfection, cells were collected for RNA extraction or luciferase assay determinations. P19 neurosphere formation assay was performed using dissociated P19 cells cultured in high-glucose DMEM (Invitrogen) supplemented with 5% of fetal bovine serum and 0. 5 μM retinoic acid. Twenty-four hours later the mean neurosphere size was quantified. Luciferase construct with the MAR sequence A4 of the Ctip2 promoter was kindly provided (R. Grosschedl, Max-Planck-Institute of Immunobiology and Epigenetics, Freiburg, Germany).
To study CTIP2 transcriptional activity P19 cells were seeded in 24-well plates and transiently co-transfected with the luciferase reporter vector MARS-A4-luc using Roti-Fect (Carl Roth, Karlsruhe, Germany) following the manufacturer’s instructions. […] After stimulation, the luciferase activities were quantified using Dual-Luciferase Assay (Promega, Madison, WI, USA). […]

[2] = tested on: S. typhimurium TA98 and S. typhimurium TA100; test: AMES reverse mutation assay, overall statement; assay type: cell-based; details: absence and presence of S9 metabolic activation
Method: Supplementary file 40035_2019_148_MOESM4_ESM.pdf: Additional file 4: AMES Data Summary. AMES Experimental Procedure. Approximately ten million bacteria are exposed in triplicate to VCE-003-.2 (7.8, 15.6, 31.3, 62.5, 125 and 250 μg/ml), a negative control (vehicle) and a positive control for 90 min in medium containing a low concentration of histidine (sufficient for about 2 doublings). The cultures were then diluted into indicator medium lacking histidine and dispensed into 48 wells of a 384 well plate (micro-plate format, MPF). The plate was incubated for 48 h at 37 °C, and the number of wells showing growth were counted and compared to the vehicle control. An increase in the number of colonies of at least two-fold over baseline (mean + SD of the vehicle control) and a dose response indicates a positive response. […] Where indicated, S9 fraction from the livers of Aroclor 1254-treated rats was included in the incubation at a final concentration of 4.5%. An NADPH-regenerating system is also included to ensure a steady supply of reducing equivalents. The strains used in this study were S. typhimurium TA98 (hisD3052, rfa, uvrB/pKM10 for detection of frame-shift mutations) and S. typhimurium TA100 ([…], rfa, uvrB/pKM101 for detection of base-pair substitutions). VCE-003.2 was assessed for its mutagenic potential in the AMES reverse mutation assay. […]

P19 cells = test: P19 neurosphere formation assay; assay type: cell-based, mouse; details: P19 cells cultured 24 h
Method: All reagents, unless indicated, were from Sigma-Aldrich (St. Louis, MO, USA). The synthesis and structure of VCE-003.2 were previously described. Mouse embryonic teratocarcinoma P19 were cultured in high-glucose DMEM (Invitrogen) supplemented with 10% fetal bovine serum and 1% penicillin/streptomycin. P19 cells were plated in 24-well plates and transfected with Lipofectamine 2000 reagent according to the manufacture’s protocol (Invitrogen). Twenty-four hours post transfection, cells were collected for RNA extraction or luciferase assay determinations. […] Twenty-four hours later the mean neurosphere size was quantified. […]
Fig. 2 VCE-003.2 exerts a pro-neurogenic effect in vitro. a-b Mouse embryonic stem cells (R1 line) were treated with Vehicle, VCE-003.2 (500 nM) during neural differentiation for 21 days. Representative immunofluorescence images and quantification of CTIP2- and doublecortin-positive cells is shown (n = 3). c Luciferase reporter assay of the A4-MARS sequence of the CTIP2 locus was performed 24 h after P19 cell transfection under neuronal differentiation conditions and subject to pharmacological regulation as above. d P19 neurosphere formation assay was performed by culturing the cells for 24 h in the presence of Vehicle or VCE-003.2. […]

Structure (SMILES): CCCCCC1=C(NCC)C(=O)C(CC=C(C)CCC=C(C)C)=C(O)C1=O [VCE-003.2, 2-(3,7-dimethyl-octa-2,6-dienyl)-6-ethylamino-3-hydroxy-5-pentyl-(1,4) benzoquinone]
- CTIP2 reporter (A4-MARS luciferase) activity [1]: CTIP2 reporter activation
- genotoxicity in AMES assay (in words) [2]: not genotoxic; also recorded: negative for genotoxicity
- mean neurosphere size (P19 cells): 367.90 ± 15.20 μm
